Results taken from PubChem BioAssay AID1963978 (Molecular Pharmacology Branch, DTP, NCI, 2024).

System: 616215-338-R-J1-PDC spheroids with HUVEC/MSC, viability
Assay: Anticancer human tumor 616215-338-R-J1-PDC patient-derived colon adenocarcinoma cell line growth inhibition [PI3K]
Conditions: for viability, T/C: stronger effect = lower value
Procedure, shortened: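 Tumor cells grown as multi-cell spheroids with HUVEC endothelial cells and MSC fibroblast-like stroma were treated with targeted agents combined with inavolisib, alpelisib, duvelisib or copanlisib. Doses fell in half-log steps from near clinical Cmax, else from 10 microM. Viability was measured.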
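Note: spheroids exposed to agents for seven days before the viability read.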

CC(Cn1ccc(-c2ccc(C#N)c(Cl)c2)n1)NC(=O)c1cc(C(C)O)[nH]n1 (centres undefined) + COc1c(OCCCN2CCOCC2)ccc2c3n(c(=NC(=O)c4cnc(N)nc4)nc12)CCN3
IC50 (curve of first compound, second compound 0.00316 µM): > 10 µM | IC50 (curve of first compound, second compound 0.01 µM): > 10 µM | IC50 (curve of first compound, second compound 0.0316 µM): > 10 µM | IC50 (curve of first compound, second compound 0.1 µM): > 10 µM | IC50 (curve of first compound, second compound 0.316 µM): < 0.0316 µM | IC50 (curve of first compound, second compound 1 µM): < 0.0316 µM | viability, T/C (second compound 0.00316 µM, first compound 0.0316 µM): 93.9% | viability, T/C (second compound 0.00316 µM, first compound 0.1 µM): 93.3% | viability, T/C (second compound 0.00316 µM, first compound 0.316 µM): 88.6% | viability, T/C (second compound 0.00316 µM, first compound 1 µM): 95.8% | viability, T/C (second compound 0.00316 µM, first compound 3.16 µM): 104% | viability, T/C (second compound 0.00316 µM, first compound 10 µM): 91.3% | viability, T/C (second compound 0.01 µM, first compound 0.0316 µM): 99.4% | viability, T/C (second compound 0.01 µM, first compound 0.1 µM): 86.7% | viability, T/C (second compound 0.01 µM, first compound 0.316 µM): 100% | viability, T/C (second compound 0.01 µM, first compound 1 µM): 90.8% | viability, T/C (second compound 0.01 µM, first compound 3.16 µM): 90.3% | viability, T/C (second compound 0.01 µM, first compound 10 µM): 86.2% | viability, T/C (second compound 0.0316 µM, first compound 0.0316 µM): 99.1% | viability, T/C (second compound 0.0316 µM, first compound 0.1 µM): 102% | viability, T/C (second compound 0.0316 µM, first compound 0.316 µM): 99.9% | viability, T/C (second compound 0.0316 µM, first compound 1 µM): 109% | viability, T/C (second compound 0.0316 µM, first compound 3.16 µM): 93.2% | viability, T/C (second compound 0.0316 µM, first compound 10 µM): 84.2% | viability, T/C (second compound 0.1 µM, first compound 0.0316 µM): 90.8% | viability, T/C (second compound 0.1 µM, first compound 0.1 µM): 91.4% | viability, T/C (second compound 0.1 µM, first compound 0.316 µM): 90.2% | viability, T/C (second compound 0.1 µM, first compound 1 µM): 96.8% | viability, T/C (second compound 0.1 µM, first compound 3.16 µM): 89.2% | viability, T/C (second compound 0.1 µM, first compound 10 µM): 83.4% | viability, T/C (second compound 0.316 µM, first compound 0.0316 µM): 35.2% | viability, T/C (second compound 0.316 µM, first compound 0.1 µM): 34.7% | viability, T/C (second compound 0.316 µM, first compound 0.316 µM): 45.3% | viability, T/C (second compound 0.316 µM, first compound 1 µM): 33.5% | viability, T/C (second compound 0.316 µM, first compound 3.16 µM): 36% | viability, T/C (second compound 0.316 µM, first compound 10 µM): 28.5% | viability, T/C (second compound 1 µM, first compound 0.0316 µM): 27.7% | viability, T/C (second compound 1 µM, first compound 0.1 µM): 17.2% | viability, T/C (second compound 1 µM, first compound 0.316 µM): 20.3% | viability, T/C (second compound 1 µM, first compound 1 µM): 24.8% | viability, T/C (second compound 1 µM, first compound 3.16 µM): 18.8% | viability, T/C (second compound 1 µM, first compound 10 µM): 17.8%

CC(=O)c1c(C)c2cnc(Nc3ccc(N4CCNCC4)cn3)nc2n(C2CCCC2)c1=O
viability, T/C (compound 0.000316 µM): 96.5% [middle of 4 runs] | viability, T/C (compound 0.001 µM): 98.8% [middle of 4 runs] | viability, T/C (compound 0.00316 µM): 98.5% [middle of 4 runs] | viability, T/C (compound 0.01 µM): 112% [middle of 4 runs] | viability, T/C (compound 0.0316 µM): 97.5% [middle of 4 runs] | viability, T/C (compound 0.1 µM): 115% [middle of 4 runs] | IC50 (curve of compound): > 0.1 µM
